± gives the standard error.
How the values were obtained:
621-102 (TSC2-deficient) [1] = assay: relative viability vs DMSO; higher = less cytotoxic; conditions: serum: 10% FBS, 72 h
621-103 (TSC2-rescued) = assay: as above; conditions: serum: 10% FBS, 72 h
621-102 (TSC2-deficient) [2] = assay: relative viability vs DMSO (fraction); higher = less cytotoxic; conditions: serum: 0.1% FBS, 72 h
UMB1949 (TSC2-deficient) = assay: as above; conditions: serum: 0.1% FBS, 72 h;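 note: renal angiomyolipoma cell lines screened in 384-well plates, viability normalized per plate to DMSO-treated cells, each plate carrying 50 nM rapamycin and 1 µM staurosporine controls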

Structure (SMILES)	relative viability (621-102 (TSC2-deficient) [1]; 0.0001 µM)	relative viability (621-102 (TSC2-deficient) [1]; 0.001 µM)	relative viability (621-102 (TSC2-deficient) [1]; 0.01 µM)	relative viability (621-102 (TSC2-deficient) [1]; 0.1 µM)	relative viability (621-102 (TSC2-deficient) [1]; 1 µM)	relative viability (621-102 (TSC2-deficient) [1]; 10 µM)	relative viability (621-103 (TSC2-rescued); 0.0001 µM)	relative viability (621-103 (TSC2-rescued); 0.001 µM)	relative viability (621-103 (TSC2-rescued); 0.01 µM)	relative viability (621-103 (TSC2-rescued); 0.1 µM)	relative viability (621-103 (TSC2-rescued); 1 µM)	relative viability (621-103 (TSC2-rescued); 10 µM)	relative viability (621-102 (TSC2-deficient) [2]; 0.0128 nM)	relative viability (621-102 (TSC2-deficient) [2]; 0.064 nM)	relative viability (621-102 (TSC2-deficient) [2]; 0.32 nM)	relative viability (621-102 (TSC2-deficient) [2]; 1.6 nM)	relative viability (621-102 (TSC2-deficient) [2]; 8 nM)	relative viability (621-102 (TSC2-deficient) [2]; 40 nM)	relative viability (621-102 (TSC2-deficient) [2]; 200 nM)	relative viability (621-102 (TSC2-deficient) [2]; 1000 nM)	relative viability (621-102 (TSC2-deficient) [2]; 5000 nM)	relative viability (UMB1949 (TSC2-deficient); 0.0128 nM)	relative viability (UMB1949 (TSC2-deficient); 0.064 nM)	relative viability (UMB1949 (TSC2-deficient); 0.32 nM)	relative viability (UMB1949 (TSC2-deficient); 1.6 nM)	relative viability (UMB1949 (TSC2-deficient); 8 nM)	relative viability (UMB1949 (TSC2-deficient); 40 nM)	relative viability (UMB1949 (TSC2-deficient); 200 nM)	relative viability (UMB1949 (TSC2-deficient); 1000 nM)	relative viability (UMB1949 (TSC2-deficient); 5000 nM)
COCC[n+]1c2c(n(Cc3cnccn3)c1C)C(=O)c1ccccc1C2=O [YM155]	119 ± 4.4%	123 ± 2.9%	85.19 ± 0.73%	14.7 ± 0.34%	2.3 ± 0.11%	1.07 ± 0.06%	103 ± 1.1%	97.14 ± 0.26%	6.98 ± 0.72%	3.13 ± 0.25%	1.38 ± 0.11%	1.32 ± 0.092%	1.26	1.18	1.05	1.14	1.01	0.797	0.0467	0.0022	0.000631	0.913	0.906	0.926	0.0628	0.00285	0.00186	0.00176	0.000862	0.000862
CN(C)CC[C@H](CSc1ccccc1)Nc1ccc(S(=O)(=O)NC(=O)c2ccc(N3CCN(Cc4ccccc4-c4ccc(Cl)cc4)CC3)cc2)cc1[N+](=O)[O-] [ABT-737]	122.1 ± 0.59%	118 ± 1.4%	113 ± 1.9%	107 ± 3.3%	101 ± 3.6%	43.2 ± 2%	101 ± 1.5%	99.05 ± 0.48%	97.82 ± 0.7%	98.61 ± 0.42%	91.97 ± 0.57%	43.5 ± 2.2%	0.888	0.796	0.677	0.564	0.491	0.175	0.00664	0.00508	0.00348	1.02	0.975	0.941	0.965	0.92	0.869	0.803	0.197	0.00643
O=C(/C=C/c1cccc(S(=O)(=O)Nc2ccccc2)c1)NO [Belinostat(PXD101)]	109 ± 3.7%	111.1 ± 1.1%	107 ± 1.1%	94.4 ± 1.9%	85.6 ± 1.9%	44.6 ± 0.66%	97.7 ± 1.1%	97 ± 2.6%	97.46 ± 0.88%	92.7 ± 1.6%	77.17 ± 0.11%	9.88 ± 0.36%	1.07	1.04	1.01	1.03	1.18	0.923	0.646	0.271	0.0621	1.11	0.925	1.01	0.986	0.987	0.854	0.277	0.00312	0.001
CCC[C@H](NC(=O)/C(C#N)=C/c1cccc(Br)n1)c1ccccc1 [WP1130]	104 ± 6%	98.3 ± 8.2%	99 ± 1.9%	100 ± 3.1%	42.6 ± 3.9%	12.9 ± 0.62%	99.84 ± 0.79%	111 ± 2.8%	109 ± 2.5%	105 ± 1.6%	65.6 ± 11%	11.4 ± 1.6%	1.37	1.16	1.59	1.27	1.4	1.62	1.11	0.0118	0.0115	1.14	0.962	1.13	1.04	1.02	1.14	0.0225	0.00218	0.00472
Cc1cc(Nc2cc(CN3CCOCC3)c3nc(C)c(Cc4ccc(Cl)cc4F)n3n2)n[nH]1	109 ± 2.8%	108 ± 1.6%	97.1 ± 3.9%	101 ± 1.6%	95.8 ± 1.3%	26.9 ± 0.53%	106.8 ± 0.47%	96.94 ± 0.68%	90.05 ± 0.81%	98.4 ± 5.3%	87.2 ± 2.1%	8.52 ± 0.44%	1.15	1.05	1.08	0.98	1.05	0.925	0.787	0.014	0.000958	1.1	1	1.03	0.938	1	0.885	0.753	0.0134	0.000916
Cn1cc(CNCC2CCN(c3ncc(C(=O)NO)cn3)CC2)c2ccccc21	95.9 ± 2.5%	86.5 ± 1.7%	59.3 ± 0.89%	36.84 ± 0.15%	25.2 ± 0.97%	18.08 ± 0.036%	91.4 ± 0.56%	78.47 ± 0.52%	44.98 ± 0.16%	3.52 ± 0.045%	2.06 ± 0.065%	1.27 ± 0.15%	1.02	0.835	0.708	0.585	0.288	0.0238	0.00256	0.000673	0.000759	1.08	0.949	0.9	0.687	0.00555	0.00221	0.0013	0.000408	0.000355
Cc1[nH]c2ccccc2c1CCNCc1ccc(/C=C/C(=O)NO)cc1 [Panobinostat (LBH589)]	–	–	–	–	–	–	–	–	–	–	–	–	1.34	0.935	1.1	0.909	0.458	0.228	0.0101	0.00297	0.00203	1.08	1.02	0.955	0.779	0.0132	0.00793	0.0069	0.00422	0.00261
COC(=O)Nc1nc2cc(Sc3ccccc3)ccc2[nH]1 [Fenbendazole]	–	–	–	–	–	–	–	–	–	–	–	–	1.37	1.35	1.68	1.39	0.898	0.314	0.0634	0.0446	0.0203	1.05	0.807	1.02	0.969	0.983	0.605	0.00543	0.00256	0.00375
CC1=NN(c2ccc(C)c(C)c2)C(=O)/C1=N\Nc1cccc(-c2cccc(C(=O)O)c2)c1O [Eltrombopag]	–	–	–	–	–	–	–	–	–	–	–	–	1.19	0.961	0.994	0.991	0.875	0.926	1.43	0.074	0.0453	1.08	0.963	1	1.05	1.09	1.03	0.473	0.00551	0.00668
CO[C@H]1C[C@@H]2CC[C@@H](C)[C@@](O)(O2)C(=O)C(=O)N2CCCC[C@H]2C(=O)O[C@H]([C@H](C)C[C@@H]2CC[C@@H](O)[C@H](OC)C2)CC(=O)[C@H](C)/C=C(\C)[C@@H](O)[C@@H](OC)C(=O)[C@H](C)C[C@H](C)/C=C/C=C/C=C/1C [Rapamycin(Sirolimus)]	–	–	–	–	–	–	–	–	–	–	–	–	0.506	0.495	0.584	0.441	0.385	0.388	0.254	0.277	0.222	0.874	0.825	0.847	0.773	0.818	0.841	0.593	0.466	0.364

Reference: the supplement of paper PMC8960247
